From the NIST ThermoML archive (doi:10.1021/je900366m) come the findings set out here.

Numbers after ± are expanded uncertainties.

Data set [1] can be described thus: refractive index (Na D-line) (dimensionless). To be noted: 293.1 K; 101.33 kPa; Liquid; Standard Abbe refractometry.
The conditions of data set [2]: 298.15 K; 101.33 kPa; Liquid; Pycnometric method.

Turning to `C1COCCO1` [1,4-dioxane], in data set [1], the refractive index (usually a measure of how strongly the sample bends light) is 1.422 ± 0.0004. Besides, the mass density – broadly, mass per unit of volume – in data set [2] was determined as 1025.9 ± 0.4 kg/m3.

With `CC=C(C)CCCC(C)(C)O` [6-octen-2-ol, 2,6-dimethyl-], the refractive index in data set [1] is 1.4408 ± 0.0004. Also, the mass density in data set [2] is 831.8 ± 0.3 kg/m3.
